Assay results reported in US20190112580A1, “METHODS FOR TREATING CO[…] AND RELATED CULTURED CELLS” (priority 2017, published 2019).

Tested on: CP myoblast cultures
Assay: Real-time qPCR gene expression profiling in fusing CP myoblasts
Format: cell-based, human
Design: key to JAG2 Expression / ATP2A1 Expression / DLL1 Expression / MYF5 Expression / ATP2A2 Expression / JAG1 Expression / SIX1 Expression / MYH7 Expression / CDKN1A Expression / NRG1 Expression / DLK1 Expression: relative expression vs non-treated; ≥2 up, ≤0.5 down
Experimental: To investigate whether additional signaling pathways and genes were affected by 5-AZA treatment, real-time qPCR was used to analyze the expression of 91 genes involved in myogenesis, neurogenesis and adipogenesis in fusing CP myoblasts after 24 hours of pretreatment with 5 μM of 5-AZA (Supp. Table 2A). […] Also, 5-AZA pretreatment led to upregulation of transcription regulators involved in myogenesis and other signaling pathways (BMI1, SIX1, SIX4, EGR3, FOXO1, MAPK14, MEF2A, MEF2C, MYF5, MYOG, NEUROD2, NOTCH2, PAX3, PAX7, PPARA, PPARD, PPARG, RPBJ, RARA). […] Impairment in other signaling pathways involved in myoblast fusion and myotube formation (e.g., TMEM8C/Myomaker, Rho GTPases, MAPKs, Calcineurin-NFATc2, NF-KB, WNT, MMPs) may also contribute to the decrease in myogenic potential of CP myoblasts.
Myoblasts, treated or non-treated with 5 μM 5-AZA for 24 hours, were cultured in high serum medium until they reached 80-90% confluence. After switch to low-serum medium, myoblast preparations were allowed to differentiate for 24-72 hours before RNA extraction. Total RNA was isolated and purified from myoblast cell culture preparations using Trizol reagent (Ambion—Life Technologies) according to manufacturer's recommendations. First-strand cDNA synthesis from purified RNAs and qPCR amplification was performed using the GoTaq 2-Step RT-qPCR System kit (Promega) according to manufacturer's protocols. Resulting cDNAs were subjected to SYBR Green-based real-time amplification using a C1000 Thermal Cycler apparatus (Bio-Rad). Each PCR amplification reaction (20 μl volume) contained 100 ng of starting cDNA template and primers amplifying a specific gene. Gene expression profiling during myoblast differentiation was investigated using predesigned 96-well gene panels for use with SYBR Green (SABioscience) (Tables 1A and 2A).
The predesigned 96-well gene panels utilized expertly designed and experimentally validated PCR primers and assays and included 3 reference genes for relative gene expression normalization and quantification: HPRT1, TBP and AP3DI. These reference genes were specifically validated for our experimental treatment and conditions and were selected among 15 experimentally tested candidates and analyzed using the software packages Bestkeeper, geNorm and Normfinder. Cycling conditions for SYBR Green primers consisted of an initial step at 50° C. (2 minutes) and a first denaturizing step at 95° C. (2 minutes), followed by 50 cycles of a thermal step protocol consisting of 95° C. (20 seconds), 60° C. (20 seconds) and 72° C. (20 seconds). A standard melt curve profiling consisting of a 65-95° C. thermal ramp was performed at the end of each protocol. Gene expression quantification was performed using Bio-Rad CFX Manager software. Positively and negatively regulated genes were selected following a P<0.05 and a 2 or 0.5 expression level respectively. Functional gene classification was performed using The Database for Annotation, Visualization and Integrated Discovery (DAVID) v6.8 (at <https://david.ncifcrf.gov/>).

[1] = 5 μM 24 hours pretreatment vs non-treated CP, 48-72 hours of differentiation
[2] = gene ACTA1, 5 μM 24 h pretreatment vs non-treated CP
[3] = gene ACTG1, 5 μM 24 h pretreatment vs non-treated CP
[4] = gene ACTN2, 5 μM 24 h pretreatment vs non-treated CP
[5] = gene ATP2A1, 5 μM 24 h pretreatment vs non-treated CP
[6] = gene ATP2A2, 5 μM 24 h pretreatment vs non-treated CP
[7] = gene BCL2, 5 μM 24 h pretreatment vs non-treated CP
[8] = gene BMI1, 5 μM 24 h pretreatment vs non-treated CP
[9] = gene CAV3, 5 μM 24 h pretreatment vs non-treated CP
[10] = gene CDKN1A, 5 μM 24 h pretreatment vs non-treated CP
[11] = gene DES, 5 μM 24 h pretreatment vs non-treated CP
[12] = gene DLK1, 5 μM 24 h pretreatment vs non-treated CP
[13] = gene DLL1, 5 μM 24 h pretreatment vs non-treated CP
[14] = gene EGR3, 5 μM 24 h pretreatment vs non-treated CP
[15] = gene FHL2, 5 μM 24 h pretreatment vs non-treated CP
[16] = gene FOXO1, 5 μM 24 h pretreatment vs non-treated CP
[17] = gene ITGA7, 5 μM 24 h pretreatment vs non-treated CP
[18] = gene ITGB1, 5 μM 24 h pretreatment vs non-treated CP
[19] = gene JAG1, 5 μM 24 h pretreatment vs non-treated CP
[20] = gene JAG2, 5 μM 24 h pretreatment vs non-treated CP
[21] = gene LRP4, 5 μM 24 h pretreatment vs non-treated CP
[22] = gene MAPK14, 5 μM 24 h pretreatment vs non-treated CP
[23] = gene MEF2A, 5 μM 24 h pretreatment vs non-treated CP
[24] = gene MEF2C, 5 μM 24 h pretreatment vs non-treated CP
[25] = gene MET, 5 μM 24 h pretreatment vs non-treated CP
[26] = gene MYF5, 5 μM 24 h pretreatment vs non-treated CP
[27] = gene MYF6, 5 μM 24 h pretreatment vs non-treated CP
[28] = gene MYH2, 5 μM 24 h pretreatment vs non-treated CP
[29] = gene MYH3, 5 μM 24 h pretreatment vs non-treated CP
[30] = gene MYH7, 5 μM 24 h pretreatment vs non-treated CP
[31] = gene MYH8, 5 μM 24 h pretreatment vs non-treated CP
[32] = gene MYH9, 5 μM 24 h pretreatment vs non-treated CP
[33] = gene MYOG, 5 μM 24 h pretreatment vs non-treated CP
[34] = gene NCAM1, 5 μM 24 h pretreatment vs non-treated CP
[35] = gene NEUROD2, 5 μM 24 h pretreatment vs non-treated CP
[36] = gene NOTCH2, 5 μM 24 h pretreatment vs non-treated CP
[37] = gene NRG1, 5 μM 24 h pretreatment vs non-treated CP
[38] = gene PAK1, 5 μM 24 h pretreatment vs non-treated CP
[39] = gene PAX3, 5 μM 24 h pretreatment vs non-treated CP
[40] = gene PAX7, 5 μM 24 h pretreatment vs non-treated CP
[41] = gene PDGFRA, 5 μM 24 h pretreatment vs non-treated CP
[42] = gene PDGFRB, 5 μM 24 h pretreatment vs non-treated CP
[43] = gene PPARA, 5 μM 24 h pretreatment vs non-treated CP
[44] = gene PPARD, 5 μM 24 h pretreatment vs non-treated CP
[45] = gene PPARG, 5 μM 24 h pretreatment vs non-treated CP
[46] = gene RARA, 5 μM 24 h pretreatment vs non-treated CP
[47] = gene RBPJ, 5 μM 24 h pretreatment vs non-treated CP
[48] = gene SHH, 5 μM 24 h pretreatment vs non-treated CP
[49] = gene SIX1, 5 μM 24 h pretreatment vs non-treated CP
[50] = gene SIX4, 5 μM 24 h pretreatment vs non-treated CP
[51] = gene TMEM8C, 5 μM 24 h pretreatment vs non-treated CP

SMILES: Nc1ncn([C@@H]2O[C@H](CO)[C@@H](O)[C@H]2O)c(=O)n1 [5-AZA, 5-azacytidine]
- genes significantly downregulated (of 91 genes) [1]: 7 genes
- genes significantly upregulated (of 91 genes) [1]: 43 genes
- ACTA1 Expression [2]: 5.23
- ACTA1 Regulation [2]: 5.2
- ACTG1 Expression [3]: 0.09
- ACTG1 Regulation [3]: −10.7
- ACTN2 Expression [4]: 5.96
- ACTN2 Regulation [4]: 6.0
- ATP2A1 Expression [5]: 7.87
- ATP2A1 Regulation [5]: 7.9
- ATP2A2 Expression [6]: 3.26
- ATP2A2 Regulation [6]: 3.3
- BCL2 Expression [7]: 5.33
- BCL2 Regulation [7]: 5.3
- BMI1 Expression [8]: 2.97
- BMI1 Regulation [8]: 3.0
- CAV3 Expression [9]: 2.92
- CAV3 Regulation [9]: 2.9
- CDKN1A Expression [10]: 0.23
- CDKN1A Regulation [10]: −4.4
- DES Expression [11]: 6.23
- DES Regulation [11]: 6.2
- DLK1 Expression [12]: 16.51
- DLK1 Regulation [12]: 16.5
- DLL1 Expression [13]: 7.05
- DLL1 Regulation [13]: 7.0
- EGR3 Expression [14]: 14.93
- EGR3 Regulation [14]: 14.9
- FHL2 Expression [15]: 0.45
- FHL2 Regulation [15]: −2.2
- FOXO1 Expression [16]: 7.30
- FOXO1 Regulation [16]: 7.3
- ITGA7 Expression [17]: 4.22
- ITGA7 Regulation [17]: 4.2
- ITGB1 Expression [18]: 2.11
- ITGB1 Regulation [18]: 2.1
- JAG1 Expression [19]: 2.61
- JAG1 Regulation [19]: 2.6
- JAG2 Expression [20]: 10.19
- JAG2 Regulation [20]: 10.2
- LRP4 Expression [21]: 3.01
- LRP4 Regulation [21]: 3.0
- MAPK14 Expression [22]: 2.84
- MAPK14 Regulation [22]: 2.8
- MEF2A Expression [23]: 10.08
- MEF2A Regulation [23]: 10.1
- MEF2C Expression [24]: 5.79
- MEF2C Regulation [24]: 5.8
- MET Expression [25]: 2.07
- MET Regulation [25]: 2.1
- MYF5 Expression [26]: 6.99
- MYF5 Regulation [26]: 7.0
- MYF6 Expression [27]: 3.77
- MYF6 Regulation [27]: 3.8
- MYH2 Expression [28]: 6.99
- MYH2 Regulation [28]: 7.0
- MYH3 Expression [29]: 6.74
- MYH3 Regulation [29]: 6.7
- MYH7 Expression [30]: 2.15
- MYH7 Regulation [30]: 2.1
- MYH8 Expression [31]: 2.51
- MYH8 Regulation [31]: 2.5
- MYH9 Expression [32]: 0.17
- MYH9 Regulation [32]: −5.8
- MYOG Expression [33]: 7.72
- MYOG Regulation [33]: 7.7
- NCAM1 Expression [34]: 6.55
- NCAM1 Regulation [34]: 6.6
- NEUROD2 Expression [35]: 56.33
- NEUROD2 Regulation [35]: 56.3
- NOTCH2 Expression [36]: 3.12
- NOTCH2 Regulation [36]: 3.1
- NRG1 Expression [37]: 0.47
- NRG1 Regulation [37]: −2.1
- PAK1 Expression [38]: 4.49
- PAK1 Regulation [38]: 4.5
- PAX3 Expression [39]: 12.50
- PAX3 Regulation [39]: 12.5
- PAX7 Expression [40]: 2.88
- PAX7 Regulation [40]: 2.9
- PDGFRA Expression [41]: 0.38
- PDGFRA Regulation [41]: −2.6
- PDGFRB Expression [42]: 0.34
- PDGFRB Regulation [42]: −2.9
- PPARA Expression [43]: 2.69
- PPARA Regulation [43]: 2.7
- PPARD Expression [44]: 3.55
- PPARD Regulation [44]: 3.6
- PPARG Expression [45]: 24.42
- PPARG Regulation [45]: 24.4
- RARA Expression [46]: 2.19
- RARA Regulation [46]: 2.2
- RBPJ Expression [47]: 3.84
- RBPJ Regulation [47]: 3.8
- SHH Expression [48]: 23.75
- SHH Regulation [48]: 23.8
- SIX1 Expression [49]: 2.21
- SIX1 Regulation [49]: 2.2
- SIX4 Expression [50]: 3.20
- SIX4 Regulation [50]: 3.2
- TMEM8C Expression [51]: 3.59
- TMEM8C Regulation [51]: 3.6
